# Experimental data reported in ChEMBL document CHEMBL1201862, “PubChem BioAssay data set” (2004).
# The source made the active and inactive calls.
# Tests used:
# [1] = Luminescence Cell-Based Dose Retest to Confirm Inhibitors of Cancer Stem Cells. [Related pubchem assays (depositor defined):AID2717, AID2721]; assay type: functional; settings: Homo sapiens
# Vero = assay: cells; assay type: functional; settings: Chlorocebus sabaeus
# [2] = cytotoxicity in HMLE control line with eGFP shRNA, dose response, counter-screen for HMLE_sh_ECad selective toxicity project, cell-based, HMLE_sh_eGFP, luminescence (AID 463074); assay type: functional, Homo sapiens;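 also: HMLE human mammary epithelial cells expressing control shRNA against eGFP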
# [3] = molecular target: Delta-type opioid receptor (Homo sapiens, UniProt P41143); assay: Counterscreen for agonists of heterodimerization of the mu 1 (OPRM1) and delta 1 (OPRD1) opioid receptors: Luminescence-based cell-based high throughput dose response assay to identify agonists of OPRD1 homodimerization. [Related pubchem assays (depositor defined):AID504326, AID504355, AID504692, AID504904, AID504905]; assay type: functional
# Sequence of Delta-type opioid receptor (P41143 whole entry): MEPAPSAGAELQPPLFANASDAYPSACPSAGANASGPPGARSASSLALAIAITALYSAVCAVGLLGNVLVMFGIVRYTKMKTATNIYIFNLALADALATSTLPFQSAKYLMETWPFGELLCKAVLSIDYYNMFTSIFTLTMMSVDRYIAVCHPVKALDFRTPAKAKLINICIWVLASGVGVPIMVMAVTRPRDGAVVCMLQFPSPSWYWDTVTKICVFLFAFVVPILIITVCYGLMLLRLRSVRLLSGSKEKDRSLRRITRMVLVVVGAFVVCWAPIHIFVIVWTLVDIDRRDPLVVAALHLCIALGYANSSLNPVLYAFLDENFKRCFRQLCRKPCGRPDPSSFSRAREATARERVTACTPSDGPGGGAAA
# [4] = molecular target: T1, Short transient receptor potential channel 4 (Mus musculus, UniProt Q9QUQ5); assay: mouse TRPC4 channel activators, dose response, cell-based, HEK293 TRPC4/mu-opioid, Fluo-4 calcium (AID 434937); assay type: functional
# T1 sequence (Q9QUQ5 whole entry): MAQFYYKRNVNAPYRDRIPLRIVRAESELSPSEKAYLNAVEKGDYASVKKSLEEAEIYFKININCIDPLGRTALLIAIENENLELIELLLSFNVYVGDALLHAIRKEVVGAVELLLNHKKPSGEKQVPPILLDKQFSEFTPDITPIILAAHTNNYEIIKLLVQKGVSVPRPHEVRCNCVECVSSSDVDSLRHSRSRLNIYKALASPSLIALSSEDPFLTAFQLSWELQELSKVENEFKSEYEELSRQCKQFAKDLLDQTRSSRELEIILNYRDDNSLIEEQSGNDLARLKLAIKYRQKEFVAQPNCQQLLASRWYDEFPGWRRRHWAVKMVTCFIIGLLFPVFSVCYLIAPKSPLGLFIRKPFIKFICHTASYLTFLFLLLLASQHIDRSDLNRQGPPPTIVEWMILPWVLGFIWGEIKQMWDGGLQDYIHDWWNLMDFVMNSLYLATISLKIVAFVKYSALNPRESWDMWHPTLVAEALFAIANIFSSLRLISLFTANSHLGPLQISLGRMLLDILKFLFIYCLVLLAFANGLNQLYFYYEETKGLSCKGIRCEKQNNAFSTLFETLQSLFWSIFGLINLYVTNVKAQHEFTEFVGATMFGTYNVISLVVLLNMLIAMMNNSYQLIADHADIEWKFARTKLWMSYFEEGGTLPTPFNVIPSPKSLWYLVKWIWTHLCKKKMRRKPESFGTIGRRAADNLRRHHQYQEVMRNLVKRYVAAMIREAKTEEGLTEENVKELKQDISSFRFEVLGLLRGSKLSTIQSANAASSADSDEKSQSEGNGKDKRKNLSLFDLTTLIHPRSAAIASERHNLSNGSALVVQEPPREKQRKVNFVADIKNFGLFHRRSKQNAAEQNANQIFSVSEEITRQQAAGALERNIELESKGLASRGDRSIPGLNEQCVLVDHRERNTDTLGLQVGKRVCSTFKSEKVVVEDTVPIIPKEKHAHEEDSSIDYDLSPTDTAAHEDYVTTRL
# [5] = ZM109 Env clade C HIV-1 fusion inhibitors, dose response, HeLa effector, CEM target cells, luciferase, cherry-pick (AID 652058); assay type: functional, cell-based
# [6] = molecular target: 5-hydroxytryptamine receptor 5A (Homo sapiens, UniProt P47898); assay: Counterscreen for agonists of OPRM1-OPRD1 heterodimerization: luminescence-based cell-based high throughput dose response assay to identify agonists of 5-hydroxytryptamine (serotonin) 5A receptor (HTR5A). [Related pubchem assays (depositor defined):AID504326, AID504355, AID504692, AID504904, AID504905]; assay type: functional
# Sequence of 5-hydroxytryptamine receptor 5A (P47898 whole entry, the tested form may be a part): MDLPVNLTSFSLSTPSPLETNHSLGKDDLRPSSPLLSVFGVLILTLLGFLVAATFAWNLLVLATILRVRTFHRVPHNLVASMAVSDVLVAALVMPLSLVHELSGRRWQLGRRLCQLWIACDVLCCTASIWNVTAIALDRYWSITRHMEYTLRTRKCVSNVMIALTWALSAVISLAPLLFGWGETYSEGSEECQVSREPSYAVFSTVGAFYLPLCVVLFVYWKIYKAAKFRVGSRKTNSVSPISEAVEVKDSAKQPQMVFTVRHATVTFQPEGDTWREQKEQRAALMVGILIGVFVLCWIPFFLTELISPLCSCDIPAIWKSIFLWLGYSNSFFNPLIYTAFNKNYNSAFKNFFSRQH
# [7] = off-target signal loss in HeLa-CEM21 co-culture – HeLa F-luc CTL cells, cherry-picked, counter-screen for HIV-1 Env fusion inhibitor project, dose response (AID 652040); assay type: functional, cell-based;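 also: potency for signal decrease marking cytotoxic or nonspecific inhibition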
# [8] = inhibitors of HIV Env-driven cell fusion, dose response, cherry-pick (AID 652057); assay type: functional, cell-based
# Mu-type opioid receptor = Mu-type opioid receptor (Homo sapiens, UniProt P35372); assay: Counterscreen for agonists of heterodimerization of the mu 1 (OPRM1) and delta 1 (OPRD1) opioid receptors: Luminescence-based cell-based high throughput dose response assay to identify agonists of OPRM1 homodimerization.; assay type: functional;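 also: U2OS cells expressing OPRM1 and beta-arrestin as split beta-galactosidase partners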
# Sequence of Mu-type opioid receptor (P35372 whole entry, the tested form may be a part): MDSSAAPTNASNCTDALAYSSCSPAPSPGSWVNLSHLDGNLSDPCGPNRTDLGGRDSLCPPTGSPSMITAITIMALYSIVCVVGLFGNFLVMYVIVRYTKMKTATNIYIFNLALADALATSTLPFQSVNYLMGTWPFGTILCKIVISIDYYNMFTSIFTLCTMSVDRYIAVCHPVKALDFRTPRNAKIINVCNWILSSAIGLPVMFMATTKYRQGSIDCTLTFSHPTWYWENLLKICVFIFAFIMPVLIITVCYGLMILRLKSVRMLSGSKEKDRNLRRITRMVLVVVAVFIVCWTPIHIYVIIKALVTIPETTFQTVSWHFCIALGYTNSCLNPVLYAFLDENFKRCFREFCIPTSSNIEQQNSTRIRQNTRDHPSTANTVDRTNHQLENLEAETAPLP
# [9] = inhibitors of clade B AD8 Env fusion, dose response, cell-based, cherry-pick (AID 652062); assay type: functional;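 also: luciferase signal from cell-cell fusion driven by HIV-1 clade B AD8 Env; potency is for inhibitors of fusion seen as a drop in luminescence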
# [10] = molecular target: Lysine-specific demethylase 4C (Homo sapiens, UniProt Q9H3R0); assay: GASC-1 (JMJD2C) histone demethylase inhibitors, dose response, biochemical, DELFIA europium, cherry-picked samples (AID 488835); assay type: functional
# Sequence of Lysine-specific demethylase 4C (Q9H3R0 whole entry): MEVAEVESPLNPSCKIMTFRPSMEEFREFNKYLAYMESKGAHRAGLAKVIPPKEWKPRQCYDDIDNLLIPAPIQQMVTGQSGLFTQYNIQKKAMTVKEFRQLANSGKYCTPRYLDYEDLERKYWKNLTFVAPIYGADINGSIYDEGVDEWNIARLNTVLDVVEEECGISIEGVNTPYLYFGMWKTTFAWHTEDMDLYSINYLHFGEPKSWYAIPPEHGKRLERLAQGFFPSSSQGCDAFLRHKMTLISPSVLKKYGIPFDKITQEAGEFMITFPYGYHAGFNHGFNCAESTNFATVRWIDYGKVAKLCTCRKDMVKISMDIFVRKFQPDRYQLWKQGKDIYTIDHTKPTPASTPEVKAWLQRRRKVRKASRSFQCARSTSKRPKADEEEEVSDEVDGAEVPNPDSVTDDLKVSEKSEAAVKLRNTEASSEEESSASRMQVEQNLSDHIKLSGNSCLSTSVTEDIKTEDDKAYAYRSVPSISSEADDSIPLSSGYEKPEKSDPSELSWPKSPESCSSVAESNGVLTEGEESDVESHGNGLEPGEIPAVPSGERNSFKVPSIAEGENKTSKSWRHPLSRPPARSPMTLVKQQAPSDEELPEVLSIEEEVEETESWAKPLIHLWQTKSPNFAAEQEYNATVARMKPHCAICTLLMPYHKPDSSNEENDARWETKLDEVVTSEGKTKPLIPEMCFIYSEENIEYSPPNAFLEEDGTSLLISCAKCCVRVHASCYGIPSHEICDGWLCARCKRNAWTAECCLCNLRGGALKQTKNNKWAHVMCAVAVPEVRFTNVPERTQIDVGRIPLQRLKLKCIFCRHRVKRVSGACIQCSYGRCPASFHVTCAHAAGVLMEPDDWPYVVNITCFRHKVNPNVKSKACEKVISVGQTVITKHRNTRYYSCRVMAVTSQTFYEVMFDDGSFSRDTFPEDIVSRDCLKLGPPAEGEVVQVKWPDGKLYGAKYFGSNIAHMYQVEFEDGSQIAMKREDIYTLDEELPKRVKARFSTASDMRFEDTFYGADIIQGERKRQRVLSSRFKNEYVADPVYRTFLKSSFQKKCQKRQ
# [11] = molecular target: Intestinal-type alkaline phosphatase (Mus musculus, UniProt P24822); assay: PubChem AID 488785; assay type: functional
# Sequence of Intestinal-type alkaline phosphatase (Mus musculus, UniProt P24822) (P24822 whole entry): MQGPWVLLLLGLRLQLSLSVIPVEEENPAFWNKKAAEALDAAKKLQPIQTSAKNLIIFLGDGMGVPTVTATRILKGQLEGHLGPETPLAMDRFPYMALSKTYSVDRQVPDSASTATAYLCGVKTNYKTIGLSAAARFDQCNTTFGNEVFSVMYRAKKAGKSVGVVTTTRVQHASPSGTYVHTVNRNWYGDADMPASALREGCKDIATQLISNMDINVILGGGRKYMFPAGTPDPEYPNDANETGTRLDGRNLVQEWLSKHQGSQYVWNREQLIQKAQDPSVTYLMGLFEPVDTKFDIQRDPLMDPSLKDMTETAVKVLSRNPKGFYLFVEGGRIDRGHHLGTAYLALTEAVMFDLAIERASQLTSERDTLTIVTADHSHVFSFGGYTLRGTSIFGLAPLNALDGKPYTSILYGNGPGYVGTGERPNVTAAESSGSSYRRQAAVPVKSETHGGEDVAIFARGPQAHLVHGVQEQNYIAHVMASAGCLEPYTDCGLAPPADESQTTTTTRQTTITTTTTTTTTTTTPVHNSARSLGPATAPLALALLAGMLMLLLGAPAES
# [12] = molecular target: T2, Alkaline phosphatase, tissue-nonspecific isozyme (Homo sapiens, UniProt P05186); assay: TNAP enzyme inhibition by screening hits, dose response, selectivity assay for mouse IAP inhibitor project, biochemical, human TNAP, uHTS hits (AID 488906); assay type: functional
# T2 sequence (P05186 whole entry): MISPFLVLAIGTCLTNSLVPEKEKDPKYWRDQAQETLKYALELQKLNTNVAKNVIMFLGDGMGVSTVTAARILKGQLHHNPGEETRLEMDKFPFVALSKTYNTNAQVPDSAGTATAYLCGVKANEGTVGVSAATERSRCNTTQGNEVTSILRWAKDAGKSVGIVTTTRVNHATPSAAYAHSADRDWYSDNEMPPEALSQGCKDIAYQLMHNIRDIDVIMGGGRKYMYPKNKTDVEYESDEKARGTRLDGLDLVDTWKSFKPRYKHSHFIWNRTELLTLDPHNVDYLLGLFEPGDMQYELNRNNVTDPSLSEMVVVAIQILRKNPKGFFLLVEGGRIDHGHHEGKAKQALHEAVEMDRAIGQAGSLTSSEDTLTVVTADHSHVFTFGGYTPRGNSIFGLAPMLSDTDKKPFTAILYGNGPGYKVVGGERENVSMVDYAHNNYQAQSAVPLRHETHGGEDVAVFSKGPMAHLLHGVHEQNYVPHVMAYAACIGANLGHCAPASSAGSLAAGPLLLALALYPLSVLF
# [13] = molecular target: T3, Long-chain-fatty-acid--AMP ligase FadD28 (Mycobacterium tuberculosis, UniProt P9WQ59); assay: Fluorescence polarization aasay to screen for inhibitors that compete for the binding of FadD28 to a bisubstrate Measured in Biochemical System Using Plate Reader - 2147-01_Inhibitor_Dose_CherryPick_Activity.; assay type: functional, Mycobacterium tuberculosis H37Rv
# T3 sequence (P9WQ59 whole entry): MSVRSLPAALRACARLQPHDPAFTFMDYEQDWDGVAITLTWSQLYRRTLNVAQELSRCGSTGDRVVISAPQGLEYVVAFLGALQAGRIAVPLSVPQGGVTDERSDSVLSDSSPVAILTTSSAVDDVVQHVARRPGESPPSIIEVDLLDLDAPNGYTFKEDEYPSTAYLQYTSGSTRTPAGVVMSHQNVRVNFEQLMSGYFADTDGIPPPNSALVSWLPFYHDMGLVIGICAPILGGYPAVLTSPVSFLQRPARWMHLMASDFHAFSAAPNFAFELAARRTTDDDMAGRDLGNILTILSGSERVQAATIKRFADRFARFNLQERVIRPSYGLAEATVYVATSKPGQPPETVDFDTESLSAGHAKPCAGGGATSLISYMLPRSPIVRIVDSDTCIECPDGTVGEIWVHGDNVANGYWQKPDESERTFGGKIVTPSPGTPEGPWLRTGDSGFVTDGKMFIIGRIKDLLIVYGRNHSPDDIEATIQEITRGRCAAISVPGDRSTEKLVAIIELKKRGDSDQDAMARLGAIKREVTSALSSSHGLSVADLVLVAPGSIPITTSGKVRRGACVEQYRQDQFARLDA
# [14] = molecular target: Intestinal-type alkaline phosphatase (Homo sapiens, UniProt P09923); assay: inhibition of human intestinal alkaline phosphatase – biochemical, dose response (AID 488876); assay type: functional
# Sequence of Intestinal-type alkaline phosphatase (Homo sapiens, UniProt P09923) (P09923 whole entry): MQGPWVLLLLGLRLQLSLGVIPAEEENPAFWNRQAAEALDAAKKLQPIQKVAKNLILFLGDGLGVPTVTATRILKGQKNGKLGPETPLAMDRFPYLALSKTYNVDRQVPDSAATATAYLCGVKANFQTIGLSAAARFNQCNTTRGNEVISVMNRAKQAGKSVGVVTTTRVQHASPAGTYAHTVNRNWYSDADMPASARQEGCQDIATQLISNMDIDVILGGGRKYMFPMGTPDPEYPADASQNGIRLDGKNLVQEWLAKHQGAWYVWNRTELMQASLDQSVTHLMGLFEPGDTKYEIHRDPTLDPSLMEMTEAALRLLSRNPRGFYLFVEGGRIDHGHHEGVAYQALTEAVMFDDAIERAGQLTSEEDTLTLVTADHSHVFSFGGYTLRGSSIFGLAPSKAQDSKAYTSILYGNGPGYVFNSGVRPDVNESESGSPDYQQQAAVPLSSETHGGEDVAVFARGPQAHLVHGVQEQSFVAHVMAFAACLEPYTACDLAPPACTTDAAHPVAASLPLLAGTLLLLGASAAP
compound,measurement,setting,value
Cc1cc(N/N=C/c2ccc(Cl)cc2Cl)nc(NCc2ccccc2)n1,AC50,[1],3.49 µM (active)
same,CC50,Vero,> 25 µM (active)
same,AC50,[2],32.2 µM (active)
Cc1ccc(C)c(-n2cc(CNCCCn3cccn3)c(-c3ccccc3)n2)c1,EC50,[3],> 92.5 µM (inactive)
same,EC50,[4],1.5 µM (active)
same,AC50,[5],0.631 µM (active)
same,EC50,[6],> 92.5 µM (inactive)
same,AC50,[7],1.82 µM (active)
same,AC50,[8],1.28 µM (active)
same,EC50,Mu-type opioid receptor,10.1 µM (inactive)
same,AC50,[9],2.56 µM (active)
Oc1cc(NC2CCCCCC2)nc(O)n1,AC50,[10],8.69 µM (active)
O=C(NN1C(=O)/C(=C/c2ccc(O)c(O)c2)SC1=S)c1ccccc1,IC50,[11],1.28 µM (active)
same,IC50,[12],20 µM (active)
same,AC50,[13],1.41 µM (active)
same,IC50,[14],> 100 µM (inactive)
